Experimental data published in patent US20090041839A1, “PHARMACEUTICAL COMPOSITIONS FOR THE TREATMENT OF PAIN” (priority 2007, published 2009).
Read-outs that look alike come from different tables or passages of the source.

Test: Multiple escalating dose pharmacokinetic study of T-62 soft gelatin capsules (Example 12)
Assay type: in vivo
Settings: both sexes, human, plasma, healthy adults; for Tmax: median; for AUC(0-inf) / Cmax / AUC: po, arithmetic mean (SD); for AUC: τ = 12 hours, read-out: AUC0-τ
Procedure: A single-center, randomized, double-blind, parallel-group, placebo-controlled study of the safety, tolerability, and pharmacokinetics of escalating multiple doses of a T-62 composition in soft gelatin capsules (oral dosage form 4) in healthy adult male and female subjects was carried out.
Three cohorts of 12 subjects were enrolled for the study (19-38 years of age). Subjects in each cohort were randomly assigned in a 3:1 allocation to receive multiple doses of either T-62 (n=9) or placebo (n=3). Subjects in each cohort received study medication for a total of 6 days. Subjects in the first cohort received multiple doses of 100 mg T-62 or placebo. Subsequent cohorts of 12 new subjects each received multiple doses of placebo or a higher dose level of T-62 (i.e., 2×100 mg for the second cohort and 4×100 mg for the third cohort).
Each subject in each dosing cohort completed Screening, Baseline, Treatment, and Follow-Up Phases. The Screening Phase was conducted on an outpatient basis within 30 days, but no less than 3 days, prior to the start of the Baseline Phase. The Baseline Phase consisted of clinical research unit (CRU) admission and final qualification assessments. The Treatment Phase comprised of dosing, post-treatment safety assessments, and blood collection.
On the morning of Day 1, subjects received a single dose of study drug; no additional study drug were administered on Day 1. Twice-daily dosing (one morning dose and one evening dose) commenced on Day 2 and continue through Day 5. Subjects received a final dose of study drug on the morning of Day 6. Once subjects in each cohort had completed dosing, an additional 48 hours of blood sampling was conducted following the final dose to characterize the pharmacokinetics of T-62 at steady state. Subjects were discharged at the end of the 48-hour blood sampling (Day 8). The Follow-Up Phase occurred 2 days (but no more than 4 days) after discharge from the CRU.
For all cohorts, on Day 2 through Day 5, subjects were not allowed to eat any food beginning 1 hour prior to the morning and evening doses of study drug and until 2 hours after study drug administration. On Day 1 and Day 6, subjects fasted for a minimum of 9 hours pre-dose to 4 hours post-dose.
Blood samples for determining plasma concentrations of T-62 and pharmacokinetic parameters were obtained immediately prior to dosing on Day 1 and at regular intervals post-dosing over 12 hours in each treatment cohort. On Days 2-5, blood samples for pharmacokinetic analysis were collected each day prior to the morning and evening doses of study drug. Once subjects in each cohort had completed dosing on Day 6, an additional 48 hours of plasma sampling were conducted following the final dose of study drug to characterize the pharmacokinetics of T-62 at steady state.

[1] = 200 mg, Day 1, single dose 2 × 100 mg (oral dosage form 4), n = 9
[2] = 400 mg, Day 1, single dose 4 × 100 mg (oral dosage form 4), n = 9
[3] = 100 mg, Day 1, single dose 100 mg (oral dosage form 4), n = 8
[4] = 100 mg, Steady state (Day 6), 100 mg BID (oral dosage form 4), n = 8
[5] = 200 mg, Steady state (Day 6), 2 × 100 mg BID (oral dosage form 4), n = 9
[6] = 400 mg, Steady state (Day 6), 4 × 100 mg BID (oral dosage form 4), n = 9

Tmax [1]: 1 h
Tmax [2]: 2 h
AUC(0-inf) [3]: 0.0969 µg·h/mL
Cmax [3]: 0.0288 µg/mL
AUC [3]: 0.0895 µg·h/mL
AUC(0-inf) [4]: 0.407 µg·h/mL
Cmax [4]: 0.0559 µg/mL
AUC [4]: 0.197 µg·h/mL
AUC(0-inf) [1]: 0.254 µg·h/mL
Cmax [1]: 0.0607 µg/mL
AUC [1]: 0.211 µg·h/mL
AUC(0-inf) [5]: 0.995 µg·h/mL
Cmax [5]: 0.107 µg/mL
AUC [5]: 0.45 µg·h/mL
AUC(0-inf) [2]: 0.496 µg·h/mL
Cmax [2]: 0.0714 µg/mL
AUC [2]: 0.399 µg·h/mL
AUC(0-inf) [6]: 2.21 µg·h/mL
Cmax [6]: 0.179 µg/mL
AUC [6]: 0.958 µg·h/mL
Tmax (Day 1, single dose 100 mg (oral dosage form 4), n = 8): 1 h
Compound: Nc1sc2c(c1C(=O)c1ccc(Cl)cc1)CCCC2 [T-62, (2-amino-4,5,6,7-tetrahydrobenzo[b]thiophen-3-yl)(4-chlorophenyl)-methanone]
